From patent US20040242459A1 (priority 2001, published 2004)
Marks after values point to notes of the source that are not given here.

Experiments:
[1] = biological target: T1, recombinant human PPARγ (GST-PPARγ) (Homo sapiens, UniProt P37231); assay: Scintillation Proximity Assay, displacement of [3H2]Compound A from PPARγ; type: binding; conditions: human PPARγ binding; read-out: IC50 (μM: SPA or BND) Gamma
T1 construct: The full length human cDNA for PPARγ 2 was subcloned into the pGEX-2 T expression vector; made in house; host or cells: E. coli
T1 sequence (P37231 1-505): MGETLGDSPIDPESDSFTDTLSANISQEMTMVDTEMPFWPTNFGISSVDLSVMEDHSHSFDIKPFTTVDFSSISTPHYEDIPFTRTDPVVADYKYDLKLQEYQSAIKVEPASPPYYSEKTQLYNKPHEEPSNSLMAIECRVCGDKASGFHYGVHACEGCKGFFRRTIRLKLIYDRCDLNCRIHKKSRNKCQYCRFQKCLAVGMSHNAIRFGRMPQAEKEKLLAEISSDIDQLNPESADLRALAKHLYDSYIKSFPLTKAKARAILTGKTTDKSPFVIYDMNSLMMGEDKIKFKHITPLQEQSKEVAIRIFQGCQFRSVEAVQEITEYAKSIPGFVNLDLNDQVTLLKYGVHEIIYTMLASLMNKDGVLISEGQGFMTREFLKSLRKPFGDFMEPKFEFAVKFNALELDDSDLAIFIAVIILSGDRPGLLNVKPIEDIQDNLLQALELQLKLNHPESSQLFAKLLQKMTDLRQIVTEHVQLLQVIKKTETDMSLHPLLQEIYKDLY
From the text: As an approach to identifying human PPAR agonists, a Scintillation Proximity Assay was used to characterize PPAR-γ, PPAR-δ, and PPAR-α ligands.
Human PPARγ2, human PPARδ and human PPARα were expressed as GST-fusion proteins in E. coli. The full length human cDNA for PPARγ 2 was subcloned into the pGEX-2 T expression vector (Amersham Pharmacia Biotech, Inc.). The full length human cDNAs for PPARδ and PPARα were subcloned into the pGEX-KT expression vector (Amersham Pharmacia Biotech, Inc.). E. coli containing the respective plasmids were propagated, induced, and harvested by centrifugation. The resuspended pellet was broken in a French press and debris removed by centrifugation. Recombinant human PPAR receptors were purified by affinity chromatography on glutathione sepharose. After application to the column, and one wash, receptor was eluted with glutathione. Glycerol (10%) was added to stabilize the receptor and aliquots were stored at −80° C.
After incubation for ˜16 h at 15° C. with shaking, the assay plates were counted in a Packard Topcount with quench correction.

[2] = tested on: adjuvant-induced arthritis in female Lewis rats
Method: Nine groups of 10 rats each were injected with an emulsion containing 0.5 mg of Mycobacterium butyricum in 0.1 ml of light mineral oil, and a negative control group of 10 rats was not injected with adjuvant. Body weights, primary (injected) and contralateral (non-injected) paw volumes (determined by mercury displacement plethysmography) and lateral radiographs (obtained under Ketamine and Xylazine anesthesia) were determined before (day-1) and at various time points including 21 days following adjuvant injection. The rats were anesthetized with an intramuscular injection of 0.03-0.1 ml of a combination of Ketamine (87 mg/kg) and Xylazine (13 mg/kg) for radiographs and injection of adjuvant. Lateral to medial radiographs were made of both hind paws on days 0 and 21 for using the Faxitron (45 kVp, 30 seconds or 45 kVp, 1 second) and Kodak X-OMAT TL film, and were developed in an automatic processor. […] Specific criteria were used to establish the numerical grade of severity for each radiographic change. The maximum possible score per foot was 26. Compounds or vehicle were administered prophylactically beginning post injection of adjuvant and continuing for 21 days. The Compounds were prepared weekly, refrigerated in the dark until used, and vortex mixed immediately prior to administration. […] The liver, thymus and spleens of all rats were removed and weighed and both hind paws were removed and radiographed.
Two-factor (‘treatment’ and ‘time’) analysis of variance with repeated measures on ‘time’ were applied to the percent changes for body weight and foot volumes and to the rank-transformed radiographic total scores. A post hoc Dunnett's test was conducted to compare the effect of treatments to vehicle. A one-way analysis of variance was applied to the thymic and spleen weights followed by the Dunnett's test to compare the effect of treatments to vehicle.
Compounds or vehicle (0.5% Methocel in sterile water) were administered by oral gavage once daily for 21 days following induction of arthritis in female Lewis rats via the sub plantar injection of 0.1 ml of light mineral oil containing 0.5 mg of Mycobacterium butyricum. Control animals were not injected with adjuvant. Body weights were measured 1 day prior to (i.e. day 0) and at 14 and 21 days post induction of arthritis. The data in Table 1 represent the mean increase or decrease in body weight ±1 standard deviation for groups of 9 to 10 animals.
Compounds or vehicle (0.5% Methocel in sterile water) were administered by oral gavage once daily for 21 days following induction of arthritis in female Lewis rats via the sub plantar injection of 0.1 ml of light mineral oil containing 0.5 mg of Mycobacterium butyricum. Control animals were not injected with adjuvant.
Injected foot volumes were measured by mercury displacement plethysmography prior to induction of arthritis, and on days 4, 14 and 21 post induction of arthritis. The data represent the mean increase in foot volume ±1 standard deviation for groups of 9 to 10 animals. The extent of paw swelling in compound-treated animals was compared to the mean of that in the vehicle-treated group, and percentage inhibition was calculated for each dose level of compound.
Contralateral foot volumes were measured by mercury displacement plethysmography prior to, and at days 14 and 21 post induction of arthritis. The data represent the mean increase in foot volume ±1 standard deviation for groups of 9 to 10 animals. The extent of paw swelling in compound-treated animals was compared to the mean of that in the vehicle-treated group, and percentage inhibition was calculated for each dose level of compound.
[…] Data represent the mean weights of organs in mg ±1 standard deviation for groups of 9 to 10 animals.
Total radiographic scores were derived from examination of lateral radiographs obtained prior to, and on day 21 post induction of arthritis.

[3] = injected paw, same doses p.o. q.d.
[4] = weight at necropsy, day of euthanasia 21 (Compound 1, indomethacin) or 15 (Compounds 2-6), mean ± SD

## CCCc1cc(Oc2ccccc2)ccc1OCCc1cc2cc(CC(=O)O)ccc2[nH]1 [Compound 2, {2-[2-(4-phenoxy-2-propylphenoxy)ethyl]-1H-indol-5-yl}acetic acid]
[1]
  IC50: 0.097 µM
[2]; contralateral paw, p.o. q.d., Compounds 1, 2, 4, 6 30 mg/kg/day, Compound 3 50, Compound 5 100, indomethacin 2, mean ± SD
  Change in Secondary Foot Volume Day 14-0: 786 ± 220 µL
[2]; contralateral paw, same doses p.o. q.d.
  Secondary Foot Volume % Inhibition Compared to Vehicle Day 14-0: 0%
[2]; injected paw, p.o. q.d., Compounds 1, 2, 4, 6 30 mg/kg/day, Compound 3 50, Compound 5 100, indomethacin 2, mean ± SD
  Change in Primary Foot Volume Day 4-0: 1642 ± 386 µL
[2]; [3]
  Primary Foot Volume % Inhibition Compared to Vehicle Day 4-0: 18.6%
  Primary Foot Volume % Inhibition Compared to Vehicle Day 14-0: 21.3%
[2]; injected paw, same doses p.o. q.d., mean ± SD
  Change in Primary Foot Volume Day 14-0: 1875 ± 418 µL
[2]; p.o. q.d., Compounds 1, 2, 4, 6 30 mg/kg/day, Compound 3 50, Compound 5 100, indomethacin 2 mg/kg/day, mean ± SD
  change in body weight Day 14-0: 0.8 ± 7.3**^++ grams
[2]; up to day 14, rats then euthanized
  prevention of swelling of primary or secondary paws: failed to prevent swelling of either the primary or secondary paws
[2]; [4]
  Spleen: 590.8 ± 82.1 mg
  Thymus: 168.7 ± 44.6 mg
